Values belong to the compound of their own block, whether it stands above or below them.
What was measured:
[1] = tested on: p70S6K; assay type: cell-based, human; conditions: 2 hours; trastuzumab 2 μg/ml, RAD001 0.4 nM
[2] = tested on: Akt; assay type: cell-based, human; conditions: 2 hours; trastuzumab 2 μg/ml, triciribine 2.5 μM, RAD001 0.4 nM
[3] = tested on: MCF7 cells; assay: Western blot of Akt pathway after mTOR inhibitor; assay type: cell-based; conditions: 24 hour time course
Method: The upper panels (A) show western blots of OV3 cell lysates following the treatment with 1 nM mTOR inhibitor rapamycin for the time indicated. Membranes were probed with antibodies specific to phosphorylated isoforms and to the total protein for comparison of Akt, p70S6K and FKHRL 1. The lower panels (B) illustrate western blots of MCF7 cell lysates following treatment with the mTOR inhibitor RAD001 for the time indicated. Membranes were probed with antibodies specific to phosphorylated isoforms and to the total protein for comparison of Akt and p70S6K.
OV3 and MCF7 cells were treated with the mTOR inhibitors rapamycin and RAD001, respectively, over a 24 hour time course. Lysyates were resolved by SDS-PAGE and transferred to a membrane for western blotting. Membranes were probed with antibodies to phospho-Akt, total Akt, phospho-p70S6K, and total p70S6K. Membranes with lysates derived from OV3 cells were additionally probed with antibodies to phospho-FKHRL 1 and total FKHRL 1.

[4] = target: PKCα (Homo sapiens, UniProt P17252); assay: PKCα activity, kinase assay and immunoblot; assay type: cell-based
[5] = tested on: H929 cells and U266 cells; assay: Survival of multiple myeloma derived cells; assay type: cell-based

Compound: CO[C@H]1C[C@@H]2CC[C@@H](C)[C@@](O)(O2)C(=O)C(=O)N2CCCC[C@H]2C(=O)O[C@H]([C@H](C)C[C@@H]2CC[C@@H](OCCO)[C@H](OC)C2)CC(=O)[C@H](C)/C=C(\C)[C@@H](O)[C@@H](OC)C(=O)[C@H](C)C[C@H](C)/C=C/C=C/C=C/1C [RAD001, everolimus]
phosphorylation of p70S6K [1]: dramatically blocked
phosphorylation of Akt on Thr308 and Ser473 [2]: feedback activation of Akt
activation of Akt pathway [3]: rapid activation of Akt pathway

kinase activity of PKCα [4]: inhibited
Compound: Cn1cc(C2=C(c3cn(CCCSC(=N)N)c4ccccc34)C(=O)NC2=O)c2ccccc21 [Ro 31-8220]

Compound: CC(C)C[C@H](NC(=O)[C@H](Cc1ccccc1)NC(=O)c1cnccn1)B(O)O [bortezomib]
effect of API-2 on survival of myeloma cells [5]: synergistically enhances

— patent US8901086B2, “Compositions including triciribine and methods of use thereof” (University of South Florida, priority 2004, dated 2014)
